Measured values published in patent publication US10088490B2, “Assay for analytes using multiple receptors” (Siemens Healthcare Diagnostics Inc., priority 2010, dated 2018).

What was measured:
Type in all cases: binding
[1] = test system: Antibody A specific for cortisol (clone 16DC/17.7, IgG1κ); assay: LOCI competitive cortisol immunoassay, cross-reactivity screening with Biotinylated Antibody A Reagent; details: 100% A Biotinylated Antibody; steroid-stripped serum with cortisol (5 ng/dL)
Method: (§1) The antibodies were subjected to analytical size exclusion chromatography prior to any manipulations.
(§2) NHS-PEO4-Biotin was dissolved fresh at 10 mg/mL in Antibody Dialysis Buffer. […] The mixture was rocked at 25° C. for exactly 3 hours. A 200 mM solution of glycine was prepared by dissolving 750 mg glycine in Antibody Dialysis Buffer to a total volume of 50 mL. At the end of the 3-hour biotinylation reaction, 1.52 mL of the 200 mM glycine solution was added to the reaction mixture. The quenched reaction mixture was rocked an additional 60 minutes at 25° C.
(§3) The biotinylated antibody was then purified using preparatory HPLC using Antibody Dialysis Buffer as the mobile phase. […] This reagent was designated as the Biotinylated Antibody Reagent.
(§4) The assay used for screening purposes was conducted on the DIMENSION® VISTA® instrument (system) (Siemens Healthcare Diagnostics Inc., Newark Del.). Initially, 20 μL Biotinylated Antibody Reagent with 15 μL system water was added to the vessel. After 22 seconds, 15 μL sample with 15 μL system water were added to the vessel. After almost 4 minutes, 20 μL Chemibead Reagent with 15 μL system water were added to the vessel. Approximately 7 minutes later, 20 μL Sensibead Reagent with 135 μL system water was added to the vessel. The LOCI® read was taken after approximately 5 minutes. The assay from the first reagent addition to the final read took approximately 16 minutes. The contents of the vessel when the final read is taken were as follows: 2 ng/mL Biotinylated Antibody Reagent, 4 μg/mL Chemibead Reagent, 56 μg/mL Sensibead Reagent, and […] sample. The assay is a competitive format, which means that the greater the concentration of analyte in the sample, the smaller is the signal generation. This is because a detectable complex is formed by the Biotinylated Antibody Reagent, Chemibead Reagent, and Sensibead Reagent in the absence of analyte. The presence of analyte decreases the proportion of Biotinylated Antibody Reagent that is free to form detectable complexes.
(§5) Initial testing used Biotinylated Antibody A Reagent with the other reagents and the methodology described above to analyze the steroid-stripped serum with cortisol. The panel of 34 cross-reactants were individually added to the steroid-stripped serum with a defined concentration of cortisol (5 ng/dL) and assayed. Cross-reactivity data were calculated as follows:
(§6) [formula] The same testing was performed using Biotinylated Antibody L Reagent. The compilation of the percent cross-reactivities for the 34 compounds is referred to as the cross-reactivity profile. The apparent cortisol concentration is the cortisol value obtained when testing a sample containing cortisol and the interfering substance by the above test method that also detects the interfering substance to some degree.

[2] = test system: Antibody L specific for cortisol (clone XM210, IgG2a); assay: LOCI competitive cortisol immunoassay, cross-reactivity screening with Biotinylated Antibody L Reagent; details: 100% L Biotinylated Antibody; steroid-stripped serum with cortisol (5 ng/dL)
Method: as §1, §2, §3, §4, §5, §6

[3] = test system: mixture of Biotinylated Antibody A Reagent and Biotinylated Antibody L Reagent; assay: LOCI competitive cortisol immunoassay, cross-reactivity with mixtures of Biotinylated Antibody A and L Reagents; details: steroid-stripped serum with cortisol
Method: as §4, §5, §6
A further study was performed by mixing Biotinylated Antibody A Reagent with Biotinylated Antibody L Reagent in a 50:50 mixture; 80% Biotinylated Antibody A Reagent: 20% Biotinylated Antibody L Reagent; 75% Biotinylated Antibody A Reagent: 25% Biotinylated Antibody L Reagent; and 70% Biotinylated Antibody A Reagent: 30% Biotinylated Antibody L Reagent. […] These reagents were used to test cross-reactivity in stripped serum with cortisol.

[4] = 70% A 30% L Biotinylated Antibody
[5] = 75% A 25% L Biotinylated Antibody
[6] = 80% A 20% L Biotinylated Antibody

Structure (SMILES)	percent cross reactivity [1] [%]	percent cross reactivity [2] [%]	percent cross reactivity [3, 4] [%]	percent cross reactivity [3, 5] [%]	percent cross reactivity [3, 6] [%]
C[C@]12CCC(=O)C=C1CC[C@@H]1[C@@H]2[C@@H](O)C[C@@]2(C)[C@H]1CC[C@]2(O)C(=O)COS(=O)(=O)O [sulphate 21-cortisol]	22.5	0.2	0.6	0.7	0.9
C[C@]12CC[C@@H](O)C[C@H]1CC[C@@H]1[C@@H]2CC[C@@]2(C)[C@H]1CC[C@]2(O)C(=O)CO [tetrahydro-11-deoxycortisol]	0.3	0.2	0.2	0.2	0.2
C[C@]12CC[C@@H](O)C[C@H]1CC[C@@H]1[C@@H]2[C@@H](O)C[C@@]2(C)[C@H]1CC[C@]2(O)C(=O)CO [tetrahydrocortisol]	0.0	0.1	0.1	0.1	0.0
C[C@]12CC[C@@H](O)C[C@H]1CC[C@@H]1[C@@H]2C(=O)C[C@@]2(C)[C@H]1CC[C@]2(O)C(=O)CO [tetrahydrocortisone]	0.5	0.1	0.2	0.2	0.3
C[C@]12CC[C@@H](O)C[C@H]1CC[C@@H]1[C@@H]2[C@@H](O)C[C@@]2(C)[C@H]1CC[C@]2(O)[C@@H](O)CO [α-cortol]	0.2	1.0	0.7	0.6	0.5
C[C@]12CC[C@@H](O)C[C@H]1CC[C@@H]1[C@@H]2C(=O)C[C@@]2(C)[C@H]1CC[C@]2(O)[C@@H](O)CO [α-cortolone]	0.0	0.0	0.0	0.0	0.0
C[C@]12CC[C@@H](O)C[C@H]1CC[C@@H]1[C@@H]2[C@@H](O)C[C@@]2(C)[C@H]1CC[C@]2(O)[C@H](O)CO [β-cortol]	0.0	0.0	0.0	0.0	0.0
C[C@]12CC[C@@H](O)C[C@H]1CC[C@@H]1[C@@H]2C(=O)C[C@@]2(C)[C@H]1CC[C@]2(O)[C@H](O)CO [β-cortolone]	0.0	0.0	0.0	0.0	0.0
